# Source: US20160106711A1, “3-3-Di-Substituted-Oxindoles as Inhibitors of Translation Initiation” (President and Fellows of Harvard College, priority 2012, published 2016)
# Columns and labels:
# [1] = test system: KLN; test: Cell growth assay (sulforhodamine B), KLN cells; assay type: cell-based, mouse; details: Mus musculus, 120 h, 5 days, SRB
# Protocol: […] Plates were then incubated with 0.4% SRB in 1% acetic acid for 1 h, washed with 1% acetic acid to remove the unbound dye, and air-dried. The bound dye was solubilized by addition of 10 mM Tris (pH 10), and the absorbance was determined in a Titertek Multiscan plate reader at 490 nm. The data calculations were carried out as described (the values for mean±SD of data from replicate wells are calculated): data are expressed in terms of % T/C [(OD of treated cells/OD of control cells)×100], as a measure of cell viability and survival in the presence of test materials. Calculations are also made for the concentration of test agents giving a T/C value of 50%, or 50% growth inhibition (IC50). With the SRB assay, a measure is made of the cell population density at time 0 (the time at which drugs are added) from two extra reference plates of inoculated cells fixed with TCA just prior to drug addition to the test plates. Thus, we have three measurements: control optical density (C), test optical density (T), and optical density at time zero (T0). The calculation is 100×[(T−T0)/(C−T0)]. If T is less than T0, cell killing has occurred and can be calculated from 100×[(T−T0)/T0]. Thus, for each drug-cell line combination, a dose-response curve is generated and three levels of effect are calculated.
# [2] = test system: CRL-2813; test: Cell growth assay (sulforhodamine B), CRL-2813 cells; assay type: cell-based, human; details: Homo sapiens, CRL2813, 120 h, 5 days, SRB
# Protocol: (§1) Adherent mouse (KLN) and human solid tumor cells (CRL-2351, and CRL-2813) were plated in 96-well plates and maintained for 5 days in the presence of 0.54 to 6 μM of individual compound, and cell proliferation was measured by the sulforhodamine B (SRB) assay as described in ref. 11: briefly, cells were fixed in 10% cold trichloroacetic acid at 4° C. for 1 h, extensively washed with double-distilled H2O and air-dried. Plates were then incubated with 0.4% SRB in 1% acetic acid for 1 h, washed with 1% acetic acid to remove the unbound dye, and air-dried. The bound dye was solubilized by addition of 10 mM Tris (pH 10), and the absorbance was determined in a Titertek Multiscan plate reader at 490 nm. The data calculations were carried out as described (the values for mean±SD of data from replicate wells are calculated): data are expressed in terms of % T/C [(OD of treated cells/OD of control cells)×100], as a measure of cell viability and survival in the presence of test materials. Calculations are also made for the concentration of test agents giving a T/C value of 50%, or 50% growth inhibition (IC50). With the SRB assay, a measure is made of the cell population density at time 0 (the time at which drugs are added) from two extra reference plates of inoculated cells fixed with TCA just prior to drug addition to the test plates. Thus, we have three measurements: control optical density (C), test optical density (T), and optical density at time zero (T0). The calculation is 100×[(T−T0)/(C−T0)]. If T is less than T0, cell killing has occurred and can be calculated from 100×[(T−T0)/T0]. Thus, for each drug-cell line combination, a dose-response curve is generated and three levels of effect are calculated.
# [3] = test system: CRL-2351; test: Cell growth assay (sulforhodamine B), CRL-2351 cells; assay type: cell-based, human; details: Homo sapiens, 120 h, 5 days, SRB
# Protocol: as §1
# [4] = test system: eIF2•GTP•Met-tRNAi ternary complex; test: Ternary complex assay (ATF-4 assay), dual luciferase firefly/renilla ratio; assay type: cell-based, mouse; details: Mus musculus; for maximal fold induction at 40 µM: read-out: ATF-4 Xmax @ 40 μM
# Text: For assay development, a bi-directional plasmid was designed in which a common promoter/enhancer complex drives the transcription of firefly luciferase (F-luc) ORF fused to the 5′ untranslated region (UTR) of ATF-4, and of the renilla luciferase (R-luc) ORF fused to a 90-nucleotide 5′ UTR derived from the plasmid (FIG. 6A). Because the tetracycline-regulated transactivator ((tTA), required for driving transcription from this vector) is not normally expressed in the mammalian cells, stable KLN cancer cells were constructed that expressed tTA (KLN-tTA).
# The KLN-tTA colonies that drove expression of reporter genes from pBISA-DL plasmid were selected by transient transfection and dual luciferase assay. One of these KLN-tTA cell lines was transfected with the pBISA-DL^(ATF-4) expression vector, stable colonies were selected by dual luciferase assay and expanded.
# Plasmids and Ternary Complex Assay
# (ATF-4 Assay). Briefly, bi-directional mammalian expression vector pBI (Clontech, CA) was modified to expand the multiple cloning sites (MCSs) and designated thereafter as pBISA. This vector contains seven copies of the tetracycline-regulated transactivator response element (TRE), which together act as core promoter/enhancer. The TRE is flanked on both sides by minimal human cytomegalovirus (CMV) minimal promoters allowing bi-directional transcription and two MCSs. Firefly and renilla luciferases were subcloned into MCS-I and MCS-II, respectively. This plasmid, designated pBISA-DL, transcribes two mRNAs that contain the 90 nucleotide plasmid derived 5′UTR (same sequence in both mRNAs), and the ORF encoding either firefly or renilla luciferase followed by a polyadenylation sequence as described in Ziegeler, G.; Ming, J.; Koseki, J. C.; Sevinc, S.; Chen, T.; Ergun, S.; Qin, X.; Aktas, B. H. J. Biol. Chem. 2010, 285, 15408 hereby incorporated by reference. This plasmid was further modified by inserting the 5′UTR of ATF-4 into MCS-I in front of the firefly luciferase mRNA. Transcription from this direction generates an mRNA that contains the firefly luciferase ORF preceded by a 5′UTR composed of 90 nucleotides derived from the plasmid and 267 nucleotides derived from the 5′UTR of ATF-4 mRNA. Transcription from the other direction generates an mRNA that contains the renilla luciferase ORF proceeded only by the 90-nucleotide plasmid-derived sequence in the 5′UTR. This expression plasmid is called pBISA-DL(ATF-4). In the dual luciferase assay, cells expressing firefly and renilla luciferases were lysed and the extracts assayed with a Dual-Glo Luciferase assay kit, per manufacturer's instruction (Promega Inc., Madison, Wis.). The data calculations were carried out as the ratio of firefly to renilla luciferase signal as described in Chen, T.; Ozel, D.; Qiao, Y.; Harbinski, F.; Chen, L.; Denoyelle, S.; He, X.; Zvereva, N.; Supko, J. G.; Chorev, M.; Halperin, J. A.; Aktas, B. H. Nat. Chem. Biol. 2011, 7, 610 hereby incorporated by reference.
SMILES,IC50 [1] [µM],IC50 [2] [µM],IC50 [3] [µM],maximal fold induction at 40 µM [4],maximal fold induction at 20 µM ([4]; read-out: ATF-4 Xmax),maximal fold induction at 10 µM ([4]; read-out: ATF-4 Xmax),"maximal fold induction at 80 µM ([4]; 80 uM, read-out: ATF-4 Xmax)"
CC(C)(C)c1ccc(O)c(C2(c3cc(C(C)(C)C)ccc3OCCBr)C(=O)Nc3ccccc32)c1 (stereo not shown) [HY083],11.4 ± 2.2,1 ± 0.9,2.4 ± 1.6,12.9 ± 2.11,,,
CC(C)(C)c1ccc(O)c(C2(c3cc(C(C)(C)C)ccc3OCCN3CCCC3)C(=O)N(CCN3CCCC3)c3ccccc32)c1 (stereo not shown) [HY093],4.1 ± 0.8,7.25 ± 1.6,3.6 ± 0.7,9 ± 1.7,2.21 ± 0.75,,
CC(C)(C)c1ccc(O)c(C2(c3ccccc3)C(=O)Nc3ccc4ncsc4c32)c1 (stereo not shown) [Sd233],8,0.95 ± 0.1,2.2 ± 1,1.2 ± 0.05,,,
COc1ccc(C(C)C)cc1C1(c2cc(C(C)C)ccc2O)C(=O)Nc2ccccc21 (stereo not shown) [HY161],> 20,1.4 ± 0.09,7.2 ± 3,3.91 ± 0.65,,,
CC(C)(C)c1ccc(O)c(C2(c3ccccc3)C(=O)Nc3ccc(I)cc32)c1 (stereo not shown) [Sd223],14.9 ± 3.8,2.8 ± 0.2,3.5,7.2 ± 1.2,,,
CN(C)CCOc1ccc(C(C)(C)C)cc1C1(c2cc(C(C)(C)C)ccc2O)C(=O)Nc2ccccc21 (stereo not shown) [HY077],1.7 ± 0.9,1.2 ± 0.4,1.9 ± 1,,4.65 ± 0.88,,
"CC(C)(C)c1ccc(O)c(C2(c3cc(C(C)(C)C)ccc3O)C(=O)Nc3c2ccc(F)c3F)c1 [HY036, 3,3-Bis(5-tert-Butyl-2-Hydroxyphenyl)-6,7-Difluoroindolin-2-One]",11.2 ± 3.2,2.7 ± 0.1,2.4 ± 0.6,4.45 ± 1.07,,,
"CN(C)c1ccc(C2(c3cc(C(C)(C)C)ccc3OCCN3CCOCC3)C(=O)Nc3ccccc32)cc1 (stereo not shown) [Sd154, 3-{5-tert-butyl-2-[2-(morpholin-4-yl)ethoxy]phenyl}-3-[4-(dimethylamino)phenyl]-indol-2-one]",2.2 ± 0.6,7.5 ± 1,4.7 ± 0.3,7.15 ± 0.49,,,
COc1ccc(C2(c3cc(C(C)(C)C)ccc3O)C(=O)Nc3ccc(OC)cc32)cc1 (stereo not shown) [Sd184],14.3 ± 3,11.1 ± 1.1,2.9 ± 0.3,4 ± 0.36,,,
"CN(C)CCOc1ccc(C(C)(C)C)cc1C1(c2ccccc2)C(=O)Nc2ccccc21 (stereo not shown) [Sd028, 3-(5-tert-Butyl-2-(2-(dimethylamino)ethoxy)phenyl)-3-phenylindolin-2-one]",1.2 ± 0.3,2.4 ± 0.4,1.4 ± 0.3,,,2.69 ± 0.36,
CC(C)(C)c1ccc(OCCN2CCOCC2)c(C2(c3cc(C(C)(C)C)ccc3OCCN3CCOCC3)C(=O)Nc3ccccc32)c1 [SD167],> 20,2.4 ± 0.1,1.68 ± 1.26,,,,
"CC(C)(C)c1ccc(O)c(C2(c3cc(C(C)(C)C)ccc3O)C(=O)Nc3ccccc32)c1 [HY021, 3,3-Bis(5-tert-Butyl-2-Hydroxyphenyl)Indolin-2-One]",12 ± 0.7,10.2 ± 1.2,2.8 ± 0.4,4.4,10.6,5.2 ± 2.2,
CC(C)(C)c1ccc(O)c(C2(c3ccccc3)C(=O)Nc3ccc(-c4ccc(N5CCOCC5)nc4)cc32)c1 (stereo not shown) [Sd231],13.3 ± 2.4,2.5 ± 1.5,1.8 ± 0.4,,,,15.6 ± 0.4
"CC(C)c1ccc(O)c(C2(c3cc(C(C)C)ccc3O)C(=O)Nc3ccccc32)c1 [HY050, 3,3-Bis(2-Hydroxy-5-Isopropylphenyl)Indolin-2-One]",15.2 ± 2,2.9 ± 0.3,2.6 ± 0.5,,3.34 ± 0.07,,
"CCCCc1ccc(O)c(C2(c3ccccc3)C(=O)Nc3ccccc32)c1 (stereo not shown) [Compound 1287, reference compound]",> 20,2.8 ± 0.3,3.5 ± 0.1,,,,
CC(C)(C)c1ccc(OCCOC2OC(CO)C(O)C(O)C2O)c(C2(c3cc(C(C)(C)C)ccc3OCCOC3OC(CO)C(O)C(O)C3O)C(=O)Nc3ccccc32)c1 (stereo not shown) [HY190],> 20,> 20,> 20,,,,
